Consider two compounds from patent US9675595B2, “Synergistic combinations of PI3K- and MEK-inhibitors” (Novartis AG, priority 2011, dated 2017).

Like-named read-outs stand apart in the source and are kept apart here. Some results are limits rather than exact numbers.

What all share (type): cell-based
One assay has as its system SNU-C1. Briefly: Cell viability (CellTiterGlo, 72 h), Example 1. The note with it: Homo sapiens, single agent. An excerpt: (§1) The colorectal cancer cell lines SW1417, COLO 205, LS411N, HT-29, RKO, OUMS-23, SW620, LoVo, SW480, SW837, COLO-678, LS123-NCI—H747, HCT-15, HCT116, DLD-1, T84, SW948, LS180, GP2d, HuTu 80, CW-2, SW48, NCI—H716, C2Bbe1, SNU—C1 and KM12 are obtained from the American Type Culture Collection (ATCC) and maintained in their respective culture medium as specified by the provider. These colorectal cancer cell lines have the following mutation status:
(§2) For assessment of combination effects, cells are seeded into 384-well plates at 500 cells/well and incubated overnight. The contents of the compound master plates are pre-diluted with 1:200 (1 μL compound solution to 200 μL cell […] culture medium containing 10% fetal clf serum) before transferring 5 μL of this pre-dilution to the cell plates containing 20 μL cell culture medium, to achieve the targeted final compound concentrations as well as a vehicle (DMSO) concentration of 0.09%.
(§3) Effects of single agents as well as their checkerboard combinations on cell viability are assessed after 72 hours of incubation at 37° C./5% CO2 by quantification of cellular ATP levels (CellTiterGlo, Promega) using 25 μL reagent/well and n=2 repliate plates per condition. The number/viability of cells at the time of compound addition was likewise assessed and used to estimate the population doubling time of the particular cell line. Single agent IC50s are calculated using standard four-parametric curve fitting (SLFit, model 205). Potential synergistic interactions between compound combinations are assessed using the Excess Inhibition 2D matrix according to the Loewe additivity model and are reported as Synergy Score. In addition, compound combinations are assessed by combination index analysis derived from isobologram graphs at 50% inhibition, and are reported as best combination index (CI), which corresponds to the lowest value on the isobologram. All synergy calculations are performed using CHALICE software (Lehár et al, Nat Biotechnol. (July 2009), 27(4): […]).

In another assay the test system is LS123. The assay can be described thus: Cell viability (CellTiterGlo, 72 h), Example 1. The note with it: Homo sapiens, LS-123, single agent.
Description: as §1, §2, §3

In a further assay the test system is HCT 116. The assay can be described thus: Cell viability (CellTiterGlo, 72 h), Example 1. Conditions: Homo sapiens, HCT-116, 72 h.
Description: as §1, §2, §3

A further assay relates to KM12. Briefly: Cell viability (CellTiterGlo, 72 h), Example 1. The note with it: Homo sapiens, single agent.
Description: as §1, §2, §3

The subject of another assay is SW948. Briefly: Cell viability (CellTiterGlo, 72 h), Example 1. The note with it: Homo sapiens, duplicate data points and dose response display some scatter, single agent.
Description: as §1, §2, §3

The subject of the next assay is SW620. Briefly: Cell viability (CellTiterGlo, 72 h), Example 1. The note with it: Homo sapiens, SW-620, single agent.
Description: as §1, §2, §3

For the next assay, the system named is LS411N. Briefly: Cell viability (CellTiterGlo, 72 h), Example 1. Conditions: Homo sapiens, LS-411N, single agent.
Description: as §1, §2, §3

Another assay deals with LS 180. Briefly: Cell viability (CellTiterGlo, 72 h), Example 1. Conditions: Homo sapiens, LS180, single agent.
Description: as §1, §2, §3

A further assay relates to GP2d. The assay can be described thus: Cell viability (CellTiterGlo, 72 h), Example 1. The note with it: single agent.
Description: as §1, §2, §3

For another assay, the system named is CW-2. Briefly: Cell viability (CellTiterGlo, 72 h), Example 1. The note with it: Homo sapiens, single agent.
Description: as §1, §2, §3

The test system of another assay is SW1417. The assay can be described thus: Cell viability (CellTiterGlo, 72 h), Example 1. Conditions: Homo sapiens, single agent.
Description: as §1, §2, §3

A further assay relates to OUMS-23. Briefly: Cell viability (CellTiterGlo, 72 h), Example 1. Conditions: single agent.
Description: as §1, §2, §3

The test system of the next assay is COLO-678. Briefly: Cell viability (CellTiterGlo, 72 h), Example 1. Conditions: Homo sapiens, single agent.
Description: as §1, §2, §3

For the next assay, the system named is SW837. Briefly: Cell viability (CellTiterGlo, 72 h), Example 1. The note with it: Homo sapiens, single agent.
Description: as §1, §2, §3

In another assay the test system is HCT-15. Briefly: Cell viability (CellTiterGlo, 72 h), Example 1. Conditions: Homo sapiens, single agent.
Description: as §1, §2, §3

Another assay relates to NCI-H747. Briefly: Cell viability (CellTiterGlo, 72 h), Example 1. Conditions: Homo sapiens, single agent.
Description: as §1, §2, §3

Assay [1] relates to CRC and NSCLC cell lines that carry KRAS mutations. The assay can be described thus: Cell proliferation assay (CellTiter-Glo, 72 hrs), dose matrix, Example 2, all six cell lines. Conditions: in the combination dose matrix. Here is the method: The cell lines used in this study were purchased from American Type Cell Collection, including non-small cell lung cancer cell lines NCI—H23 & NCI—H2122 (which carry both KRAS and LKB1 mutations), NCI—H358 (which carries KRAS mutation), NCI—H460 (which carries KRAS, LKB1 and PIK3CA mutations), and Colorectal Cancer cell line SW480 (which carries KRAS mutation), HCT-15 (which carries KRAS PIK3CA mutations). All the cell lines were cultured at 37° C. in a 5% CO2 incubator in RPMI 1640 (ATCC #30-2001) media complemented with 10% fetal bovine serum, 2 mmol/L glutamine and 1% sodium pyruvate.
Cell viability was determined by measuring cellular ATP content using the CellTiter-Glo® Luminescent Cell Viability Assay (Promega #G7573) according to manufacturer's protocol. Briefly, 500-900 cells/well were plated on clear-bottom 384-well black plates (Greiner#781091) in quadruplicates or duplicates with 30 ul/well growth media, cells were allowed to attach overnight and followed by 72 hrs of incubation with various concentration of drugs or drug combinations (10 ul/well), at the end of the drug treatment, 30 ul/well of the CellTiter-Glo regent were added to each well to lyse the cells, and luminescence signals were recorded on a Envision plate reader. […]

Turning to `Cn1cnc2c(F)c(Nc3ccc(Br)cc3F)c(C(=O)NOCCO)cc21` [COMPOUND B, 6-(4-bromo-2-fluorophenylamino)-7-fluoro-3-methyl-3H-benzoimidazole-5-carboxylic acid (2-hydroxyethoxy)-amide], the half-maximal inhibitory concentration (IC50) came out at 15.1 nM with SNU-C1 (read-out: Cmpd. B IC50); 2.28 µM in the assay with LS123 (read-out: Cmpd. B IC50); 0.735 µM in the assay on HCT 116 (HCT 116*, repeat experiment performed at end of study, single agent, read-out: Cmpd. B IC50); 0.881 µM in the assay with HCT 116 (HCT 116, single agent, read-out: Cmpd. B IC50); 339 nM with KM12 (read-out: Cmpd. B IC50); 89.8 nM with SW948 (read-out: Cmpd. B IC50). Also, the concentration for half-maximal inhibition (IC50) is 26.9 nM in the assay on SW620 (read-out: Cmpd. B IC50); 0.0547 µM with LS411N (read-out: Cmpd. B IC50); 143 nM in the assay on LS 180 (read-out: Cmpd. B IC50); 756 nM with GP2d (read-out: Cmpd. B IC50); over 2.7 µM in the assay on CW-2 (read-out: Cmpd. B IC50); 0.0539 µM in the assay on SW1417 (read-out: Cmpd. B IC50). Besides, the IC50 is over 2.7 µM in the assay with OUMS-23 (read-out: Cmpd. B IC50); 1710 nM with COLO-678 (read-out: Cmpd. B IC50); 0.557 µM in the assay with SW837 (read-out: Cmpd. B IC50); over 2.7 µM with HCT-15 (read-out: Cmpd. B IC50); 0.153 µM with NCI-H747 (read-out: Cmpd. B IC50). Also, in [1], the “doses at which synergistic regions are typically observed” value is on record as at least 80 nM.
For `Cc1nc(NC(=O)N2CCC[C@H]2C(N)=O)sc1-c1ccnc(C(C)(C)C(F)(F)F)c1` [COMPOUND A, (S)-pyrrolidine-1,2-dicarboxylic acid 2-amide 1-({4-methyl-5-[2-(2,2,2-trifluoro-1,1-dimethyl-ethyl)-pyridin-4-yl]-thiazol-2-yl}-amide)], the IC50 in the assay with SNU-C1 (read-out: Cmpd. A IC50) was 2430 nM; with LS123 (read-out: Cmpd. A IC50) it was 7.25 µM; in the assay on HCT 116 (HCT 116*, repeat experiment performed at end of study, single agent, read-out: Cmpd. A IC50) it was 8.32 µM; in the assay with HCT 116 (HCT 116, single agent, read-out: Cmpd. A IC50), 9.42 µM; in the assay with KM12 (read-out: Cmpd. A IC50), over 10800 nM; in the assay with SW948 (read-out: Cmpd. A IC50), 1190 nM. Besides, the IC50 was over 10800 nM with SW620 (read-out: Cmpd. A IC50); 8.67 µM in the assay on LS411N (read-out: Cmpd. A IC50); 5080 nM with LS 180 (read-out: Cmpd. A IC50); 698 nM in the assay on GP2d (read-out: Cmpd. A IC50); over 10.8 µM in the assay on CW-2 (read-out: Cmpd. A IC50); 7.85 µM in the assay with SW1417 (read-out: Cmpd. A IC50). Further, the IC50 in the assay with OUMS-23 (read-out: Cmpd. A IC50) was over 10.8 µM; in the assay on COLO-678 (read-out: Cmpd. A IC50), over 10800 nM; in the assay on SW837 (read-out: Cmpd. A IC50) it was 7.28 µM; in the assay with HCT-15 (read-out: Cmpd. A IC50) it was 6.72 µM; in the assay on NCI-H747 (read-out: Cmpd. A IC50) it was 6.21 µM. The “doses at which synergistic regions are typically observed” value in assay [1] is “above 150 nM”.
